Read-outs that look alike come from different tables or passages of the source.
Tests used:
[1] = Phase 1a single ascending oral dose study, PK; details: male, human, in vivo, fasted, geometric mean; for AUC(0-t): po
Description: Cohort 1 first received 10 mg, and after a 5-week washout period received 30 mg.

CYP2B6 = CYP2B6 (Homo sapiens, UniProt P20813); assay: In vitro CYP inhibition (direct and time-dependent), CYP2B6; assay type: in vitro ADME
From the text: However, the likelihood of drug interactions is low since healthy participants who meet eligibility criteria will be enrolled in this Phase 1b/2a clinical trial. An allowance for select concomitant medications may be considered for select participants at the discretion of the investigator and/or sponsor if drug profiles are not anticipated to interact with Compound A. Such medications may include, but will not be limited to paracetamol or ibuprofen as assessed by both the PI and the Sponsor. […] Additional precautions to avoid grapefruit, pomegranates, star fruit, or Seville oranges for 7 days prior to admission, and juices and products containing these fruits for the duration of the study will be taken.

[2] = system: mice, rats, dogs and NHPs; assay: Research in nonclinical models (mice, rats, dogs and NHPs); assay type: in vivo, mouse, rat, dog, NHP
mice [3] = assay: Repeat dose study in mice (sperm counts); assay type: in vivo, mouse
male Sprague Dawley rats = assay: Rat 28-day repeat-dose GLP toxicity study; parameters: NOAEL increase over the minimum efficacious dose in rats: dose or concentration left out as unconfirmed
male Cynomolgus macaques = assay: NHP repeat dose non-GLP efficacy study (sperm counts, MABEL); assay type: in vivo, cynomolgus macaque
Description: Animals and husbandry. Six (6) sexually mature, non-naïve male Cynomolgus macaques (8-15 years, 6-15 kg) were used. The animals were individually housed in a humidity- and temperature-controlled facility under a 12 h light/12 h dark diurnal cycle with two daily meals and water ad libitum. The animals were provided with cage toys and daily fresh fruits for environmental enrichment. The animals were acclimated for 2 weeks and observed twice daily to assess overall health and behavior. The animal use protocol was approved by WuXi App Tec's IACUC per the Association for Assessment and Accreditation of Laboratory Animal Care (AAALAC) guideline. The conduct of the study followed the Guidance for the Care and Use of Laboratory Animals (NRC 2011, 8th Edition), with a USDA Category C for the pain and distress level. The humane endpoints included: significant body weight drop of 20% within 7 days, severe adverse effort associated with the administration of the test article, pain and distress caused by any of the in-life procedures, and injury sustained during any time of the experiment that could impact the well-being of the animal (all determined by attending veterinarian). All animals were non-naïve and only animals that had normal hematology and serum chemistry parameters, and normal baseline sperm counts were included in the studies. After the end of the study, all animals were returned to the colony. Confounders were not controlled.
Dosing regimens. […] The formulation (Compound A in saline) was prepared freshly each day of dosing. […] Repeat dose administration: Three (3) Cohort 1 animals were dosed at 0.5 mg/kg/day (Day 1-46) followed by 1.5 mg/kg/day (Day 47-51), 2.5 mg/kg/day (Day 52-101) and 5 mg/kg/day (Day 102-108). Three (3) Cohort 2 animals were dosed at 5 mg/kg/day (Day 1-30) followed by 7.5 mg/kg/day (Day 31-37). No control animals were used in the single and repeat dose studies. Since bioavailability was assessed at time point zero in the PK study and sperm parameters were assessed at pre-dose in the efficacy studies, each animal served as its own control.
Semen collection and sperm count/concentration assessment. Semen samples were obtained once per week or once every other week via electroejaculation during the entire repeat dose study periods from all 3 animals per Cohort to assess sperm concentration and count. Samples were left at room temperature for 30 min to allow for liquefication. Liquefied semen was diluted with 3% NaCl solution for manual sperm count assessment using a hemocytometer. All samples were analyzed in triplicates. Sperm concentration per ejaculate was calculated with the following formula: Sperm concentration=Sperm count×104×Dilution factor. No data point was excluded from the analysis.
Testicular biopsy collection and histology. Testicular biopsies (2 per animal; one from the right and one from the left testicle) were taken 24 h after administering the last dose and on the last day of the recovery period from all 3 animals per Cohort to assess morphological changes. Preoperative care of animals consisted of food restriction and general examination. All surgical procedures were conducted using aseptic techniques and comprehensive physiologic monitoring. The animals were anesthetized with Zoletil 50 (5 mg/kg) by intramuscular (i.m.) injection. The scrotum was disinfected with iodine and 75% alcohol, and lidocaine (1%) was administered intradermally at the biopsy needle insertion site. Core biopsies (one per testis) were collected with a 16 G TSK starcut biopsy needle. Immediately after biopsy collection, animals received Meloxicam (0.2 mg/kg) and Ketorolac (10 mg) for pain relief, and Ceftriaxone sodium (0.5 g) as […] (all via i.m. injection). Meloxicam was given once daily for 3 consecutive days, Ketorolac twice daily for 2 days, and Ceftriaxone sodium once daily for 4 days post-collection. […]

mice [4] = assay: Mating trials with mice; assay type: in vivo, mouse; details: 10 mg/kg/day for 4 weeks
[5] = In vitro stability in microsomes (rabbit); assay type: in vitro ADME; details: rabbits
Description: (§1) Respective half-lives (T1/2) were 9.5 hours (human), 23.1 hours (monkeys), >23.1 hours (mice), >23.1 hours (rats), 19.6 hours (rabbits), and >23.1 hours (dogs).

[6] = In vitro stability in liver microsomes (human); assay type: in vitro ADME
Description: as §1

[7] = rat, 3, 10 or 30 mg/kg/day for 28 days

Chain of CYP2B6 (P20813 whole entry): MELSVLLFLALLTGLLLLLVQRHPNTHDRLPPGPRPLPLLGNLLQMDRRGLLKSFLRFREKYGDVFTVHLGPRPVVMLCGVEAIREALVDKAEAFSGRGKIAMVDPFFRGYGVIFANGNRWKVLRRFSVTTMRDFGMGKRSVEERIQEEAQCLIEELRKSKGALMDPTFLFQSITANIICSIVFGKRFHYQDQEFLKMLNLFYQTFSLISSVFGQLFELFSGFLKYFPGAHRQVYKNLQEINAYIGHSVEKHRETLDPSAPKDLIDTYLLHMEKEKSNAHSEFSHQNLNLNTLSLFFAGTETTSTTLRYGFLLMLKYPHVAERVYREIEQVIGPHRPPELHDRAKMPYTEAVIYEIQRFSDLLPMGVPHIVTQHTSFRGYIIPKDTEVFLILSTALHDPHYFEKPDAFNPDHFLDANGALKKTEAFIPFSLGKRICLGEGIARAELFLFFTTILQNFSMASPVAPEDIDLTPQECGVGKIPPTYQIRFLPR

With `Cc1ccc(C2=CC(C)(C)Oc3ccc(-c4ccc(-c5ccc(C(=O)O)cc5)[nH]4)cc32)cc1` [Compound A] the AUC(0-t) ([1]; 10 mg, single oral dose 10 mg, read-out: AUC0-24) was 2380 ng·h/mL, the AUC(0-t) ([1]; 10 mg, single oral dose 10 mg, read-out: AUC0-last) was 8180 ng·h/mL and the AUC(0-t) ([1]; 30 mg, single oral dose 30 mg, read-out: AUC0-24) was 3520 ng·h/mL. For the same compound, the AUC(0-t) ([1]; 30 mg, single oral dose 30 mg, read-out: AUC0-last) was 12400 ng·h/mL, the AUC(0-t) ([1]; 90 mg, single oral dose 90 mg, read-out: AUC0-24) was 8430 ng·h/mL and the AUC(0-t) ([1]; 90 mg, single oral dose 90 mg, read-out: AUC0-last) was 26300 ng·h/mL. The AUC(0-t) ([1]; 180 mg, single oral dose 180 mg, read-out: AUC0-24) was 27300 ng·h/mL, the AUC(0-t) ([1]; 180 mg, single oral dose 180 mg, read-out: AUC0-last) was 73400 ng·h/mL and the AUC(0-inf) ([1]; single oral dose 10 mg) was 9560 ng·h/mL. For the same compound, the Cmax ([1]; single oral dose 10 mg) was 131 ng/mL, the half-life ([1]; single oral dose 10 mg) was 53.5 h and the AUC(0-inf) ([1]; single oral dose 30 mg) was 12900 ng·h/mL. It also gave a Cmax ([1]; single oral dose 30 mg) of 200 ng/mL, a half-life ([1]; single oral dose 30 mg) of 61.7 h and an AUC(0-inf) ([1]; single oral dose 90 mg) of 26800 ng·h/mL. For the same compound, the Cmax ([1]; single oral dose 90 mg) was 472 ng/mL, the half-life ([1]; single oral dose 90 mg) was 71.3 h and the AUC(0-inf) ([1]; single oral dose 180 mg) was 75400 ng·h/mL. It also gave a Cmax ([1]; single oral dose 180 mg) of 1750 ng/mL, a half-life ([1]; single oral dose 180 mg) of 76.3 h and an IC50 (CYP2B6; CYP2B6) of 6.1 µM. For the same compound, the “Time-dependent inhibition (TDI)” value (CYP2B6; CYP2B6, 0.3 to 100 μM) was “no TDI potential”, the Testosterone levels ([2]; mice, rats, dogs and NHPs) was “does not alter testosterone levels” and the Virility ([2]; mice, rats, dogs and NHPs) was “does not affect virility”. For the same compound, the “Repeat dosing after which impairment of fertility / reduction of sperm counts was shown” value ([2]; nonclinical models) was 3-4 weeks, the “Reversibility of antispermatogenic effect” value (mice [3]; mice) was no more than 1 spermatogenic cycle and the “Lowest dose with decreases in sperm counts” value (mice [3]; mouse, repeat dose for 4 weeks) was 2.5 mg/kg/day. For the same compound, the “NOAEL increase over the minimum efficacious dose in rats” value (male Sprague Dawley rats; rat NOAEL […] mg/kg/day, based on exposure) was 40 fold, the Prostate weight (male Sprague Dawley rats; [7]) was “unchanged” and the “Recovery from testicular effects” value (male Sprague Dawley rats; [7]) was “very slow”. The Testosterone levels (male Sprague Dawley rats; rat, 3, 10 or 30 mg/kg/day for 28 days, inferred from prostate weight) was “did not change testosterone levels”, the “HED (based on BSA) of MABEL” value (male Cynomolgus macaques; NHP) was 0.8 mg/kg and the “HED for 60 kg BW of MABEL” value (male Cynomolgus macaques; NHP) was 48 mg. For the same compound, the “HED for 80 kg BW of MABEL” value (male Cynomolgus macaques; NHP) was 64 mg, the MABEL (male Cynomolgus macaques; NHP, 49-day repeat dose non-GLP) was 2.5 mg/kg/day and the “Lowest dose with decreases in sperm counts” value (male Cynomolgus macaques; NHP, repeat dose for 7 weeks) was 2.5 mg/kg/day. The “Reversibility of antispermatogenic effect” value (male Cynomolgus macaques; NHPs) was 1.5-3.5 spermatogenic cycles, the “Complete recovery of fertility after cessation of dosing” value (mice [4]) was 6-10 weeks and the “Infertility (based on the number of viable embryos)” value (mice [4]) was 99%. For the same compound, the half-life ([5]; rabbit, read-out: Half-life (T1/2) in microsomes (converted)) was 19.6 h, the Compound remaining intact ([5]; 90 minutes) was 99% and the “Half-life (T1/2) in microsomes” value [6] was 9.5 h.
